Values of other authors in patent publication US20210338635A1, “Dosage Regimen for the Treatment of Multiple Sclerosis with a S1P Receptor Modulator” (Argentum Pharmaceuticals LLC, priority 2020, published 2021).

Columns and labels:
[1] = administration of 1.25 mg; healthy patients; treatment initiation
[2] = humans; relapsing multiple sclerosis, oral

Row | SMILES | decrease in heart rate [1] | efficacy in the treatment of multiple sclerosis [2]
1 | CCc1cc(/C(C)=N/OCc2ccc(C3CCCCC3)c(C(F)(F)F)c2)ccc1CN1CC(C(=O)O)C1 [BAF-312, 1-({4-[(1E)-1-({[4-Cyclohexyl-3(trifluoromethyl)phenyl]methoxy}imino)ethyl]-2-ethylphenyl}methyl)azetidine-3-carboxylic acid] | approximately 8 beets/min | 
2 | CCCCCCCCc1ccc(CCC(N)(CO)CO)cc1 [FTY720] |  | efficacy in the treatment of multiple sclerosis has been shown in humans
